# Experiments:
# [1] = system: Escherichia coli; experiment: Antimicrobial activity against Escherichia coli isolate 36 harboring bla CTX-M-3a gene by broth microdilution method; format: functional
# [2] = system: Escherichia coli; experiment: Antimicrobial activity against Escherichia coli isolate 100 harboring bla CTX-M-3a gene by broth microdilution method; format: functional
# [3] = system: Escherichia coli; experiment: Antimicrobial activity against Escherichia coli isolate 49 harboring bla CTX-M-3a gene by broth microdilution method; format: functional
# [4] = system: Escherichia coli; experiment: Antimicrobial activity against Escherichia coli isolate Z1 harboring bla CTX-M-3a gene by broth microdilution method; format: functional
# [5] = system: Escherichia coli; experiment: Antimicrobial activity against Escherichia coli isolate 86 harboring bla CTX-M-3a gene by broth microdilution method; format: functional
# [6] = system: Escherichia coli; experiment: Antimicrobial activity against Escherichia coli isolate 16 harboring bla CTX-M-3a gene by broth microdilution method; format: functional
# [7] = system: Escherichia coli; experiment: Antimicrobial activity against Escherichia coli isolate 32 harboring bla CTX-M-3a gene by broth microdilution method; format: functional
# [8] = system: Escherichia coli; experiment: microbe, parasite or virus in culture; settings: ATCC 25922
# [9] = system: Escherichia coli; experiment: Antimicrobial activity against Escherichia coli isolate 49 harboring bla CTX-M-3a gene by broth microdilution method in presence of clavulanic acid
# [10] = system: Escherichia coli; experiment: Antimicrobial activity against Escherichia coli isolate 36 harboring bla CTX-M-3a gene by broth microdilution method in presence of clavulanic acid
# [11] = system: Escherichia coli; experiment: Antimicrobial activity against Escherichia coli isolate 32 harboring bla CTX-M-3a gene by broth microdilution method in presence of clavulanic acid
# [12] = system: Escherichia coli; experiment: Antimicrobial activity against Escherichia coli isolate 100 harboring bla CTX-M-3a gene by broth microdilution method in presence of clavulanic acid
# [13] = system: Escherichia coli; experiment: Antimicrobial activity against Escherichia coli isolate 86 harboring bla CTX-M-3a gene by broth microdilution method in presence of clavulanic acid
# [14] = system: Escherichia coli; experiment: Antimicrobial activity against Escherichia coli ATCC 25922 harboring bla CTX-M-3a gene by broth microdilution method in presence of clavulanic acid; format: functional
# [15] = system: Escherichia coli; experiment: Antimicrobial activity against Escherichia coli isolate 16 harboring bla CTX-M-3a gene by broth microdilution method in presence of clavulanic acid
# [16] = system: Escherichia coli; experiment: Antimicrobial activity against Escherichia coli isolate Z1 harboring bla CTX-M-3a gene by broth microdilution method in presence of clavulanic acid
# [17] = system: Escherichia coli; experiment: Antimicrobial activity against Escherichia coli isolate 16 harboring bla CTX-M-3a gene by broth microdilution method in presence of Tazobactam; format: functional
# [18] = system: Escherichia coli; experiment: Antimicrobial activity against Escherichia coli isolate 100 harboring bla CTX-M-3a gene by broth microdilution method in presence of Tazobactam; format: functional
# [19] = system: Escherichia coli; experiment: Antimicrobial activity against Escherichia coli isolate 86 harboring bla CTX-M-3a gene by broth microdilution method in presence of Tazobactam; format: functional
# [20] = system: Escherichia coli; experiment: Antimicrobial activity against Escherichia coli isolate 32 harboring bla CTX-M-3a gene by broth microdilution method in presence of Tazobactam; format: functional
# [21] = system: Escherichia coli; experiment: Antimicrobial activity against Escherichia coli isolate 36 harboring bla CTX-M-3a gene by broth microdilution method in presence of Tazobactam; format: functional
# [22] = system: Escherichia coli; experiment: Antimicrobial activity against Escherichia coli isolate 49 harboring bla CTX-M-3a gene by broth microdilution method in presence of Tazobactam; format: functional
# [23] = system: Escherichia coli; experiment: Antimicrobial activity against Escherichia coli ATCC 25922 harboring bla CTX-M-3a gene by broth microdilution method in presence of Tazobactam; format: functional
Compound,MIC [1] [µg/mL],MIC [2] [µg/mL],MIC [3] [µg/mL],MIC [4] [µg/mL],MIC [5] [µg/mL],MIC [6] [µg/mL],MIC [7] [µg/mL],MIC [8] [µg/mL],other results
CO/N=C(\C(=O)N[C@@H]1C(=O)N2C(C(=O)[O-])=C(C[N+]3(C)CCCC3)CS[C@H]12)c1csc(N)n1,256,32,8,64,512,128,–,–,–
GENTAMICIN,1,> 128,0.125,> 128,> 128,32,> 128,–,–
CO[C@@]1(NC(=O)Cc2cccs2)C(=O)N2C(C(=O)O)=C(COC(N)=O)CS[C@@H]21 [CEFOXITIN],8,8,2,16,16,4,16,4,–
NCC[C@H](O)C(=O)N[C@@H]1C[C@H](N)[C@@H](O[C@H]2O[C@H](CN)[C@@H](O)[C@H](O)[C@H]2O)[C@H](O)[C@H]1O[C@H]1O[C@H](CO)[C@@H](O)[C@H](N)[C@H]1O [AMIKACIN],2,> 128,≤ 0.03,> 128,4,64,16,1,–
CC1(C)S[C@@H]2[C@H](NC(=O)[C@H](N)c3ccccc3)C(=O)N2[C@H]1C(=O)O [AMPICILLIN],> 1020,> 1020,> 1020,> 1020,> 1020,> 1020,> 1020,4,–
CO/N=C(\C(=O)N[C@@H]1C(=O)N2C(C(=O)O)=C(COC(C)=O)CS[C@H]12)c1csc(N)n1 [CEFOTAXIME],512,128,128,> 1020,> 1020,64,> 1020,0.06,MIC [9]: 0.06 µg/mL; MIC [10]: 0.06 µg/mL; MIC [11]: 0.06 µg/mL; MIC [12]: 0.06 µg/mL; MIC [13]: 0.125 µg/mL; MIC [14]: ≤ 0.03 µg/mL; MIC [15]: 0.125 µg/mL; MIC [16]: 0.5 µg/mL
CO/N=C(\C(=O)N[C@@H]1C(=O)N2C(C(=O)O)=C(CSc3nc(=O)c(O)nn3C)CS[C@H]12)c1csc(N)n1 [CEFTRIAXONE],> 1020,> 1020,128,> 1020,> 1020,> 1020,> 1020,0.06,–
C[C@@H](O)[C@H]1C(=O)N2C(C(=O)O)=C(S[C@@H]3CN[C@H](C(=O)N(C)C)C3)[C@H](C)[C@H]12 [MEROPENEM],0.125,0.25,0.06,0.125,0.06,0.06,0.06,≤ 0.03,–
CC1(C)S[C@@H]2[C@H](NC(=O)[C@H](N)c3ccc(O)cc3)C(=O)N2[C@H]1C(=O)O [AMOXICILLIN],8,8,1,32,8,4,8,4,–
CC(C)(O/N=C(\C(=O)N[C@@H]1C(=O)N2C(C(=O)[O-])=C(C[n+]3ccccc3)CS[C@H]12)c1csc(N)n1)C(=O)O [CEFTAZIDIME],4,4,0.25,16,8,1,4,0.25,MIC [9]: 0.06 µg/mL; MIC [10]: 0.25 µg/mL; MIC [11]: 0.5 µg/mL; MIC [12]: 0.5 µg/mL; MIC [13]: 0.5 µg/mL; MIC [14]: 0.125 µg/mL; MIC [15]: 0.125 µg/mL; MIC [16]: 1 µg/mL
C[C@@H](O)[C@H]1C(=O)N2C(C(=O)O)=C(SCCNC=N)C[C@H]12 [IMIPENEM ANHYDROUS],0.25,0.5,0.06,1,–,–,0.25,–,–
CCN1CCN(C(=O)N[C@@H](C(=O)N[C@@H]2C(=O)N3[C@@H]2SC(C)(C)[C@@H]3C(=O)O)c2ccccc2)C(=O)C1=O [PIPERACILLIN],> 1020,> 1020,64,> 1020,> 1020,256,> 1020,2,MIC [17]: 2 µg/mL; MIC [18]: 4 µg/mL; MIC [19]: > 128 µg/mL; MIC [20]: 16 µg/mL; MIC [21]: 4 µg/mL; MIC [22]: 8 µg/mL; MIC [23]: 2 µg/mL
O=C(O)c1cn(C2CC2)c2cc(N3CCNCC3)c(F)cc2c1=O [CIPROFLOXACIN],–,–,≤ 0.03,> 128,–,–,–,≤ 0.03,–
